Tests used:
Assay type in all cases: biochemical
[1] = target: T1, VEGF-R (vascular endothelial growth factor receptor-2) (Rattus norvegicus, UniProt O08775); assay: VEGF-R Screening Assay; conditions: Table 1; read-out: VEGF-R IC50
T1 construct: polyhistidine (6xHIS) (N)
Experimental: (§1) 70 μL of the kinase reaction mixture was dispensed into the well of a streptavidin coated FlashPlate™ (Cat. # SMP103, NEN, Boston, Mass.). Then 1 μL of test compound stock in 100% DMSO was added to the wells resulting in a final concentration of 1% DMSO in the reaction with a 100 μL final reaction volume. Next, soluble rat tyrosine kinase containing an N-terminal 6×HIS tag was diluted in 50 mM Tris-HCl pH=8.0, 0.1% BSA at a concentration of 5 ng per μL and 30 μL (150 ng enzyme per test well) was added to each well to initiate the reaction. The reaction was incubated for one hour at 30° C. At the end of the 1-hour incubation, the reaction was terminated by aspirating the reaction mixture from the plate and washing the wells twice with PBS containing 100 mM EDTA. The PLC1 biotinylated peptide substrate became immobilized on the Flashplate™ and the incorporation of ^33P-γ-ATP was measured by reading the plate on a scintillation counter. Inhibition of the enzymatic activity of the VEGF-R was measured by observing a reduced amount of ^33P-γ-ATP incorporated into the immobilized peptide.
(§2) Assays to test compound inhibition of other kinases were preformed using methods that measure the amount of phosphorylation of a biotinylated peptide substrate. Biotinylated peptide substrates were selected from the literature as appropriate for the enzyme being evaluated. […] Assay conditions vary slightly for each protein kinase, for example, insulin receptor kinase requires 10 mM MnCl2 for activity and Calmodulin-dependent protein kinase requires calmodulin and 10 mM CaCl2. These assay conditions are known in the art. The reaction mixture was dispensed into the wells of a streptavidin coated Flashplate and 1 μl drug stock in 100% DMSO was added to a 100 μl reaction volume resulting in a final concentration of 1% DMSO on the reaction. Enzyme was diluted in 50 mM Tris-HCl pH=8.0, 0.1% BSA and add to each well. The reaction was incubated for one hour at 30° C. in the presence of compound. After one hour the reaction mix was aspirated from the plate and the plate was washed with PBS containing 100 mM EDTA. The plate was read on a scintillation counter to determine ^33P-γ-ATP incorporated into the immobilized peptide. Test compounds were assayed in duplicate at 8 concentrations [100 uM, 10 uM, 1 uM, 100 nM, 10 nM, 1 nM, 100 pM, 10 pM]. A maximum and minimum signal for the assay was determined on each plate. The IC50 was calculated from the dose response curve of the percent inhibition of the maximum signal in the assay according to the formula [max signal—background/test compound signal—background (100)=% inhibition] by graphing the percent inhibition against the log concentration of test compound. Known inhibitor compounds appropriate for the kinase being assayed were also included on each plate.
(§3) CDK2 in complex with cyclin A is commercially available (Upstate Biotech, Lake Placid, N.Y.). The CDK4 complex was composed of a mouse CDK4 protein and a mouse Cyclin D1 protein (The mouse CDK4 protein was genetically fused to an N-terminal Flag-epitope tag and the mouse Cyclin D1 protein was fused with an N-terminal AU-1 epitope tag. The genes encoding these proteins were transferred to commercially available baculoviral vectors. The recombinant CDK4/D1 complex was then made by co-infecting commercially available insect cells with viruses carrying these two constructs). […] ERK-1 protein (Discontinued from Calbiochem). EGFR (epidermal growth factor receptor) is purified from human A431 cell membranes (Sigma, St. Louis, Mo., Cat.# E3641).

[2] = target: T2, CDK1:Cyclin-B (Homo sapiens, UniProt P06493); assay: CDK1 Screening Assay; conditions: Table 1; read-out: CDK1 IC50
T2 construct: purchased New England Biolabs 6020; host or cells: insect cells
Experimental: as §1, with “100 μl” for “100 μL”, “Next, CDK1:Cyclin-B protein” for “Next, soluble rat tyrosine kinase containing an N-terminal 6×HIS tag”, “of 1” for “of 5”, “30 μl (30” for “30 μL (150”, “The histone-H1” for “The PLC1”, “of CDK1” for “of the VEGF-R”
Assays to test compound inhibition of other kinases were preformed using methods that measure the amount of phosphorylation of a biotinylated peptide substrate. Biotinylated peptide substrates were selected from the literature as appropriate for the enzyme being evaluated. […] Assay conditions vary slightly for each protein kinase, for example, insulin receptor kinase requires 10 mM MnCl2 for activity and Calmodulin-dependent protein kinase requires calmodulin and 10 mM CaCl2. These assay conditions are known in the art. The reaction mixture was dispensed into the wells of a streptavidin coated Flashplate and 1 μl drug stock in 100% DMSO was added to a 100 μl reaction volume resulting in a final concentration of 1% DMSO on the reaction. Enzyme was diluted in 50 mM Tris-HCl pH=8.0, 0.1% BSA and add to each well. The reaction was incubated for one hour at 30° C. in the presence of compound. After one hour the reaction mix was aspirated from the plate and the plate was washed with PBS containing 100 mM EDTA. The plate was read on a scintillation counter to determine ^33P-γ-ATP incorporated into the immobilized peptide. Test compounds were assayed in duplicate at 8 concentrations [100 uM, 10 uM, 1 uM, 100 nM, 10 nM, 1 nM, 100 pM, 10 pM]. A maximum and minimum signal for the assay was determined on each plate. The IC50 was calculated from the dose response curve of the percent inhibition of the maximum signal in the assay according to the formula [max signal—background/test compound signal—background (100)=% inhibition] by graphing the percent inhibition against the log concentration of test compound. Known inhibitor compounds appropriate for the kinase being assayed were also included on each plate. […]

[3] = target: T3, HER2 (human epidermal growth factor receptor-2) (Homo sapiens, UniProt P04626); assay: Kinase Selectivity Assay HER2; conditions: Table 1; read-out: HER2 IC50
T3 construct: begins at amino acid 676 followed by the remainder of the HER2 cytoplasmic domain; polyhistidine (N)
Experimental: as §2, §3

T3 sequence (P04626 676-1255 limits assumed): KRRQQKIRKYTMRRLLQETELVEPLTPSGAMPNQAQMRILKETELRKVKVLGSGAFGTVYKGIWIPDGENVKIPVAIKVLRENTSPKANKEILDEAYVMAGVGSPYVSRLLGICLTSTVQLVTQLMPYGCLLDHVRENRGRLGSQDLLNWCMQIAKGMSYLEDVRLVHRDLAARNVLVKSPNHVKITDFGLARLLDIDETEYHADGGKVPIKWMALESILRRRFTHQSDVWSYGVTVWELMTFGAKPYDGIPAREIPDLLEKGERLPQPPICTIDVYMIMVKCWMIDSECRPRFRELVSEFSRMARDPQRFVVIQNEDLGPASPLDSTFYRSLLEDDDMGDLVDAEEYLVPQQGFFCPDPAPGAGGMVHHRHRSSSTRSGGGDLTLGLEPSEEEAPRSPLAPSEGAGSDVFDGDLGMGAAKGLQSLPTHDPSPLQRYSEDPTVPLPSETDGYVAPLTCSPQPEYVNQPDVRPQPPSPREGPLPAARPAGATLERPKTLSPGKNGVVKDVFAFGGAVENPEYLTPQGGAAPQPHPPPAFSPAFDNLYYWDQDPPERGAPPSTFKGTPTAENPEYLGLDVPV
T2 sequence (P06493 whole entry): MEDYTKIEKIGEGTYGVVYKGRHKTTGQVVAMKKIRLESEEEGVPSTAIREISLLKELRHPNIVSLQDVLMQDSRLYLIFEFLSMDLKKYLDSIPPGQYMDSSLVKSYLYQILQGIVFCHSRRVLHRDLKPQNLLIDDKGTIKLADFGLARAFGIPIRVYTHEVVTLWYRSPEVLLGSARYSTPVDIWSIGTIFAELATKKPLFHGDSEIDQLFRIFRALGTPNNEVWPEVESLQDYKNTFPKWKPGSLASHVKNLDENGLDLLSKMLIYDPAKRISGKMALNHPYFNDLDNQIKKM
T2 sequence (P14635 whole entry partner): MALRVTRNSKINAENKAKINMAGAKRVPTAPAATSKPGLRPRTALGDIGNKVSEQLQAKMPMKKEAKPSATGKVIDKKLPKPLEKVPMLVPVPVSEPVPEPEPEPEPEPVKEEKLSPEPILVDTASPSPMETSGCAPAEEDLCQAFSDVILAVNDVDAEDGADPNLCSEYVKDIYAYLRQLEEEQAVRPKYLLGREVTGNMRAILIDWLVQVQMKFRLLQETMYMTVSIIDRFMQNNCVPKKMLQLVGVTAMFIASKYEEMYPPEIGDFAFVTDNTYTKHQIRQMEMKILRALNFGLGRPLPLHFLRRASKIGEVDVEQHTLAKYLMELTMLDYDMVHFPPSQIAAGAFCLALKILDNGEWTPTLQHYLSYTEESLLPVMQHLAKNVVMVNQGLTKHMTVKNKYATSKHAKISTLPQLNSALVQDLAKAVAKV
T1 sequence (O08775 786-1343): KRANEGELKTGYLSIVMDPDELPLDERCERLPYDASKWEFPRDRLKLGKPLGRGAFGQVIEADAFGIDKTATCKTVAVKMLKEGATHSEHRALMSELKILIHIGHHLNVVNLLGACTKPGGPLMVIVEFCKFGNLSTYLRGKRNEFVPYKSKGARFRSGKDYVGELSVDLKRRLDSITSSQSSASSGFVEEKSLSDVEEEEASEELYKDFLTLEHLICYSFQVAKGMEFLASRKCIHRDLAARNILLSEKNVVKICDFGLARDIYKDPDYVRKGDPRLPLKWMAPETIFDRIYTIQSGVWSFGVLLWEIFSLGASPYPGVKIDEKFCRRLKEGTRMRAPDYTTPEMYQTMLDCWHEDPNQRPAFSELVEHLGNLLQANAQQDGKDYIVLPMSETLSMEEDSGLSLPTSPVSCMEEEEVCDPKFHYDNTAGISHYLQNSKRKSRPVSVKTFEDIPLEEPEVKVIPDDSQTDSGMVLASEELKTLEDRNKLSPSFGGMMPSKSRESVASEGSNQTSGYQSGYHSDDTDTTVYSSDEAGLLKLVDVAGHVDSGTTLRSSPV

Q: How did the IC50 [1] turn out when Nc1nc(Nc2ccc(S(N)(=O)=O)cc2)nn1C(=O)c1ccc(-c2ccccn2)s1 [Cpd 49, 4-[[5-amino-1-[[5-(2-pyridinyl)-2-thienyl]carbonyl]-1H-1,2,4-triazol-3-yl]amino]-benzenesulfonamide] was run?
A: > 1000 nM

Q: What about the IC50 [2] of the same compound?
A: > 1000 nM

Q: What about the IC50 [3] of the same compound?
A: > 1000 nM

Q: CN(C)S(=O)(=O)c1ccc(Nc2nc(N)n(C(=O)c3c(F)cccc3F)n2)cc1 [Cpd 89, 4-[[5-amino-1-(2,6-difluorobenzoyl)-1H-1,2,4-triazol-3-yl]amino]-N,N-dimethyl-benzenesulfonamide] was tested. Which IC50 [1] did it give?
A: 598 nM

Q: What about the IC50 [2] of the same compound?
A: 710 nM

Q: And the IC50 [3]?
A: ~10000 nM

Q: What does the source list for Nc1nc(Nc2ccc(S(N)(=O)=O)cc2)nn1C(=O)c1ccc(C#Cc2ccccc2)s1 [Cpd 53, 4-[[5-amino-1-[[5-(phenylethynyl)-2-thienyl]carbonyl]-1H-1,2,4-triazol-3-yl]amino]-benzenesulfonamide]?
A: IC50 [1]: > 1000 nM; IC50 [2]: > 1000 nM; IC50 [3]: > 1000 nM

Q: What does the source list for Cc1ccc(F)c(C(=O)n2nc(Nc3ccc(S(=O)(=O)N(C)C)cc3)nc2N)c1F [Cpd 88, 4-[[5-amino-1-(2,6-difluoro-3-methylbenzoyl)-1H-1,2,4-triazol-3-yl]amino]-N,N-dimethyl-benzenesulfonamide]?
A: IC50 [1]: 965 nM; IC50 [2]: 313 nM; IC50 [3]: ~1000 nM

Q: Cc1ccsc1C(=O)n1nc(Nc2ccc(S(=O)(=O)N(C)C)cc2)nc1N [Cpd 87, 4-[[5-amino-1-[(3-methyl-2-thienyl)carbonyl]-1H-1,2,4-triazol-3-yl]amino]-N,N-dimethyl-benzenesulfonamide] was tested. Which IC50 [1] did it give?
A: 16.8 nM

Q: What about the IC50 [2] of the same compound?
A: 217 nM

Q: And the IC50 [3]?
A: 436 nM

Q: How did the IC50 [1] turn out when CS(=O)(=O)Nc1ccc(Nc2nc(N)n(C(=O)c3c(F)cccc3F)n2)cc1 [Cpd 111] was run?
A: 702 nM

Q: What about the IC50 [2] of the same compound?
A: 150 nM

Q: What about the IC50 [3] of the same compound?
A: 16800 nM

Q: Which IC50 [1] does the source give for Cc1ccc(F)c(C(=O)n2nc(Nc3ccc(N4CCN(C)CC4)cc3)nc2N)c1F [Cpd 72, 1-(2,6-difluoro-3-methylbenzoyl)-N^3-[4-(4-methyl-1-piperazinyl)phenyl]-1H-1,2,4-triazole-3,5-diamine] here?
A: 380 nM

Q: And the IC50 [2]?
A: 1430 nM

Q: And the IC50 [3]?
A: 1490 nM

Q: For Cc1cc(C)c(C(=O)n2nc(Nc3ccc(N4CCN(C)CC4)cc3)nc2N)s1 [Cpd 74, 1-[(3,5-dimethyl-2-thienyl)carbonyl]-N^3-[4-(4-methyl-1-piperazinyl)phenyl]-1H-1,2,4-triazole-3,5-diamine], which IC50 [1] is on record?
A: 21 nM

Q: What about the IC50 [2] of the same compound?
A: 460 nM

Q: What about the IC50 [3] of the same compound?
A: 62 nM

Q: With Nc1nc(Nc2ccc(-n3cnnc3)cc2)nn1C(=O)c1c(F)cccc1F [Cpd 100, 1-(2,6-difluorobenzoyl)-N^3-[4-(4H-1,2,4-triazol-4-yl)phenyl]-1H-1,2,4-triazole-3,5-diamine] as the compound, how does the IC50 [1] read?
A: 1100 nM

Q: What about the IC50 [2] of the same compound?
A: 340 nM

Q: And the IC50 [3]?
A: 1290 nM

Q: Which results are given for CCc1ccc(C(=O)n2nc(Nc3ccc(-n4ccnc4)cc3)nc2N)s1 [Cpd 90, 1-[(5-ethyl-2-thienyl)carbonyl]-N^3-[4-(1H-imidazol-1-yl)phenyl]-1H-1,2,4-triazole-3,5-diamine]?
A: IC50 [1]: ~100 nM; IC50 [2]: ~1000 nM; IC50 [3]: ~100 nM

Q: For Nc1nc(Nc2ccc(-n3cncn3)cc2)nn1C(=O)c1c(F)cccc1F [Cpd 96, 1-(2,6-difluorobenzoyl)-N^3-[4-(1H-1,2,4-triazol-1-yl)phenyl]-1H-1,2,4-triazole-3,5-diamine], which IC50 [1] is on record?
A: 817 nM

Q: What about the IC50 [2] of the same compound?
A: 373 nM

Q: What about the IC50 [3] of the same compound?
A: 1410 nM

Q: Which IC50 [1] does the source give for Cc1ccc(F)c(C(=O)n2nc(Nc3ccc(-n4cncn4)cc3)nc2N)c1F [Cpd 95, 1-(2,6-difluoro-3-methylbenzoyl)-N^3-[4-(1H-1,2,4-triazol-1-yl)phenyl]-1H-1,2,4-triazole-3,5-diamine] here?
A: 260 nM

Q: What about the IC50 [2] of the same compound?
A: 139 nM

Q: What about the IC50 [3] of the same compound?
A: 914 nM

Q: What does the source list for CCc1ccc(C(=O)n2nc(Nc3ccc(N4CCN(C)CC4)cc3)nc2N)s1 [Cpd 75, 1-[(5-ethyl-2-thienyl)carbonyl]-N^3-[4-(4-methyl-1-piperazinyl)phenyl]-1H-1,2,4-triazole-3,5-diamine]?
A: IC50 [1]: 33 nM; IC50 [2]: 520 nM; IC50 [3]: 60 nM

Q: With Cc1ccsc1C(=O)n1nc(Nc2ccc(N3CCN(C)CC3)cc2)nc1N [Cpd 73, N^3-[4-(4-methyl-1-piperazinyl)phenyl]-1-[(3-methyl-2-thienyl)carbonyl]-1H-1,2,4-triazole-3,5-diamine] as the compound, how does the IC50 [1] read?
A: 29 nM

Q: And the IC50 [2]?
A: 2200 nM

Q: What about the IC50 [3] of the same compound?
A: 176 nM

Q: Which IC50 [1] does the source give for CCc1ccc(C(=O)n2nc(Nc3ccc(-n4cncn4)cc3)nc2N)s1 [Cpd 97, 1-[(5-ethyl-2-thienyl)carbonyl]-N^3-[4-(1H-1,2,4-triazol-1-yl)phenyl]-1H-1,2,4-triazole-3,5-diamine] here?
A: ~100 nM

Q: What about the IC50 [2] of the same compound?
A: ~100 nM

Q: What about the IC50 [3] of the same compound?
A: ~10 nM

Q: Which results are given for Cc1cccc(C)c1C(=O)n1nc(Nc2ccc(S(N)(=O)=O)cc2)nc1N [Cpd 56, 4-[[5-amino-1-(2,6-dimethylbenzoyl)-1H-1,2,4-triazol-3-yl]amino]-benzenesulfonamide]?
A: IC50 [1]: 20000 nM; IC50 [2]: 490 nM; IC50 [3]: 4170 nM

Q: How did the IC50 [1] turn out when Cc1ccsc1C(=O)n1nc(Nc2ccc(-n3ccnc3)cc2)nc1N [Cpd 91, N^3-[4-(1H-imidazol-1-yl)phenyl]-1-[(3-methyl-2-thienyl)carbonyl]-1H-1,2,4-triazole-3,5-diamine] was run?
A: 73.6 nM

Q: And the IC50 [2]?
A: 335 nM

Q: And the IC50 [3]?
A: 223 nM

Q: Which IC50 [1] does the source give for CC(C)(C)OC(=O)/C=C/c1ccc(C(=O)n2nc(Nc3ccc(S(N)(=O)=O)cc3)nc2N)s1 [Cpd 52, 3-[5-[[5-amino-3-[[4-(aminosulfonyl)phenyl]amino]-1H-1,2,4-triazol-1-yl]carbonyl]-2-thienyl]-(2E)-2-propenoic acid-1,1-dimethylethyl ester] here?
A: 110 nM

Q: What about the IC50 [2] of the same compound?
A: 35 nM

Q: What about the IC50 [3] of the same compound?
A: 1470 nM

Q: What does the source list for Cc1ccc(F)c(C(=O)n2nc(Nc3ccc(S(=O)(=O)O)cc3)nc2N)c1F [Cpd 60, 4-[[5-amino-1-(2,6-difluoro-3-methylbenzoyl)-1H-1,2,4-triazol-3-yl]amino]-benzenesulfonic acid]?
A: IC50 [1]: 890 nM; IC50 [2]: 1370 nM; IC50 [3]: 7460 nM

— US6924302B2, “Substituted triazole diamine derivatives as kinase inhibitors” (Ortho McNeil Pharmaceutical, Inc., priority 2000, dated 2005)
